Toxic doses and inconclusive results are not listed. No stated cut-off is given here; in the data, active means T/C of 150% or more; inactive means T/C below 125%.
System: L1210 leukemia ip in BDF1 mice, survival T/C
Experiment: NCI In Vivo Anticancer Drug Screen. Data for tumor model L1210 Leukemia (intraperitoneal) in B6D2F1 (BDF1) mice
Conditions: endpoint: mean survival time, higher = longer survival
In short: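 In this screen, tumor-bearing mice given compound are compared to those given vehicle, and their survival values are reported as a treated-to-control quotient.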

[1] = dose: 100.0 mg/kg/injection, schedule: Q01DX009 (ip), vehicle: Klucel (hydroxypropylcellulose) (HPC)
[2] = dose: 100.0 mg/kg/injection, schedule: Q01DX009 (ip), vehicle: saline with Tween-80
[3] = dose: 100.0 mg/kg/injection, schedule: Q04DX003 (ip), vehicle: Klucel (hydroxypropylcellulose) (HPC)
[4] = dose: 100.0 mg/kg/injection, schedule: Q04DX003 (ip), vehicle: saline with Tween-80
[5] = dose: 200.0 mg/kg/injection, schedule: Q01DX009 (ip), vehicle: Klucel (hydroxypropylcellulose) (HPC)
[6] = dose: 200.0 mg/kg/injection, schedule: Q01DX009 (ip), vehicle: saline with Tween-80
[7] = dose: 200.0 mg/kg/injection, schedule: Q04DX003 (ip), vehicle: Klucel (hydroxypropylcellulose) (HPC)
[8] = dose: 200.0 mg/kg/injection, schedule: Q04DX003 (ip), vehicle: saline with Tween-80
[9] = dose: 400.0 mg/kg/injection, schedule: Q01DX009 (ip), vehicle: saline with Tween-80
[10] = dose: 400.0 mg/kg/injection, schedule: Q04DX003 (ip), vehicle: saline with Tween-80
[11] = dose: 100.0 mg/kg/injection, schedule: Q04DX002 (ip), vehicle: Klucel (hydroxypropylcellulose) (HPC)

Measured: T/C

COc1ccccc1NC(=S)Nc1ccccc1OC
inactive: [1] 102 % of control | dose: 100.0 mg/kg/injection, schedule: Q01DX009 (ip), vehicle: saline sonified 97 % of control | [2] 90 % of control | [3] 93 % of control | dose: 100.0 mg/kg/injection, schedule: Q04DX003 (ip), vehicle: saline sonified 110 % of control | [4] 92 % of control | [5] 94 % of control | dose: 200.0 mg/kg/injection, schedule: Q01DX009 (ip), vehicle: saline sonified 97 % of control | [6] 101 % of control | [7] 98 % of control | dose: 200.0 mg/kg/injection, schedule: Q04DX003 (ip), vehicle: saline sonified 95 % of control | [8] 96 % of control | dose: 400.0 mg/kg/injection, schedule: Q01DX009 (ip), vehicle: saline sonified 86 % of control | [9] 93 % of control | dose: 400.0 mg/kg/injection, schedule: Q04DX003 (ip), vehicle: Klucel (hydroxypropylcellulose) (HPC) 96 % of control | dose: 400.0 mg/kg/injection, schedule: Q04DX003 (ip), vehicle: saline sonified 116 % of control | [10] 92 % of control

Cn1/c(=N/N)sc2ccccc21.Cn1/c(=N/N)sc2ccccc21.Cn1/c(=N/N)sc2ccccc21.Cn1/c(=N\N)sc2ccccc21.[Cl][Rh][Cl]
inactive: dose: 3.13 mg/kg/injection, schedule: Q04DX003 (ip), vehicle: distilled water + Tween-80 100 % of control | dose: 6.25 mg/kg/injection, schedule: Q04DX003 (ip), vehicle: distilled water + Tween-80 98 % of control | dose: 12.5 mg/kg/injection, schedule: Q04DX003 (ip), vehicle: distilled water + Tween-80 101 % of control | dose: 25.0 mg/kg/injection, schedule: Q04DX003 (ip), vehicle: distilled water + Tween-80 101 % of control | dose: 50.0 mg/kg/injection, schedule: Q04DX003 (ip), vehicle: distilled water + Tween-80 93 % of control | dose: 100.0 mg/kg/injection, schedule: Q04DX003 (ip), vehicle: distilled water + Tween-80 90 % of control | dose: 200.0 mg/kg/injection, schedule: Q04DX003 (ip), vehicle: distilled water + Tween-80 95 % of control

O=P(NC1CCCCC1)(NC1CCCCC1)c1ccccc1
inactive: dose: 100.0 mg/kg/injection, schedule: Q04DX002 (ip), vehicle: gum acacia 104 % of control | dose: 200.0 mg/kg/injection, schedule: Q04DX002 (ip), vehicle: gum acacia 93 % of control | dose: 400.0 mg/kg/injection, schedule: Q04DX002 (ip), vehicle: gum acacia 96 % of control

NC(CSS(=O)(=O)O)=NC1CC1
inactive: [11] 94 % of control | dose: 200.0 mg/kg/injection, schedule: Q04DX002 (ip), vehicle: Klucel (hydroxypropylcellulose) (HPC) 91 % of control | dose: 400.0 mg/kg/injection, schedule: Q04DX002 (ip), vehicle: Klucel (hydroxypropylcellulose) (HPC) 109 % of control

CN(C)NP(=O)(Nc1ccccc1)Nc1ccccc1
inactive: dose: 100.0 mg/kg/injection, schedule: Q01DX009 (ip), vehicle: carboxymethylcellulose (CMC) 103 % of control | dose: 200.0 mg/kg/injection, schedule: Q01DX009 (ip), vehicle: carboxymethylcellulose (CMC) 93 % of control | dose: 400.0 mg/kg/injection, schedule: Q01DX009 (ip), vehicle: carboxymethylcellulose (CMC) 98 % of control

O=c1[nH]c(=S)[nH]cc1Cc1cccc2ccccc12
inactive: dose: 25.0 mg/kg/injection, schedule: Q01DX001 (ip), vehicle: Klucel (hydroxypropylcellulose) (HPC) 104 % of control | dose: 50.0 mg/kg/injection, schedule: Q01DX001 (ip), vehicle: Klucel (hydroxypropylcellulose) (HPC) 94 % of control | dose: 100.0 mg/kg/injection, schedule: Q01DX001 (ip), vehicle: Klucel (hydroxypropylcellulose) (HPC) 92 % of control

CN1C2CNC(=O)CC1C1CCC2C1 (stereo unspecified)
inactive: dose: 25.0 mg/kg/injection, schedule: Q04DX002 (ip), vehicle: saline 94 % of control | dose: 50.0 mg/kg/injection, schedule: Q04DX002 (ip), vehicle: saline 102 % of control | dose: 75.0 mg/kg/injection, schedule: Q01DX001 (ip), vehicle: carboxymethylcellulose (CMC) 106 % of control

C=CCN(CC=C)P(=O)(N1CC1)N1CC1
inactive: dose: 6.2 mg/kg/injection, schedule: Q01DX001 (ip), vehicle: saline 88 % of control | dose: 12.5 mg/kg/injection, schedule: Q01DX001 (ip), vehicle: saline 88 % of control | dose: 25.0 mg/kg/injection, schedule: Q01DX001 (ip), vehicle: saline 88 % of control | dose: 50.0 mg/kg/injection, schedule: Q01DX001 (ip), vehicle: saline 88 % of control

O=c1cc(O)ccn1CCc1cccs1
inactive: [2] 94 % of control | [4] 91 % of control | [6] 96 % of control | [8] 98 % of control | [10] 90 % of control

O=C1/C(=C\c2ccccc2)OC(c2ccccc2)O/C1=C/c1ccccc1 (stereo unspecified)
inactive: dose: 100.0 mg/kg/injection, schedule: Q01DX009 (ip), vehicle: saline 91 % of control | dose: 100.0 mg/kg/injection, schedule: Q04DX003 (ip), vehicle: saline 91 % of control | dose: 200.0 mg/kg/injection, schedule: Q01DX009 (ip), vehicle: saline 98 % of control | dose: 200.0 mg/kg/injection, schedule: Q04DX003 (ip), vehicle: saline 96 % of control | dose: 400.0 mg/kg/injection, schedule: Q01DX009 (ip), vehicle: saline 88 % of control | dose: 400.0 mg/kg/injection, schedule: Q04DX003 (ip), vehicle: saline 98 % of control

CCOC(=O)CSc1nc2nc(Cl)c(Cl)nc2[nH]1
inactive: dose: 25.0 mg/kg/injection, schedule: Q01DX009 (ip), vehicle: saline with Tween-80 104 % of control | dose: 50.0 mg/kg/injection, schedule: Q01DX009 (ip), vehicle: saline with Tween-80 98 % of control | [2] 105 % of control | [6] 96 % of control

CCN(CC)c1ccc(-c2nc3ccccc3s2)cc1
inactive: dose: 50.0 mg/kg/injection, schedule: Q04DX003 (ip), vehicle: Klucel (hydroxypropylcellulose) (HPC) 99 % of control | [3] 94 % of control | [7] 91 % of control

O=C(O)Cc1ccc([N+](=O)[O-])cc1
inactive: [2] 90 % of control | [6] 93 % of control | [9] 94 % of control

CCCCCCCCCCCCCCn1cnc2c(N)ncnc21
inactive: dose: 12.5 mg/kg/injection, schedule: Q01DX005 (ip), vehicle: other 101 % of control | dose: 25.0 mg/kg/injection, schedule: Q01DX005 (ip), vehicle: other 111 % of control | dose: 50.0 mg/kg/injection, schedule: Q01DX005 (ip), vehicle: other 101 % of control | dose: 100.0 mg/kg/injection, schedule: Q01DX005 (ip), vehicle: other 106 % of control

CCP(C)(C)=S
inactive: dose: 25.0 mg/kg/injection, schedule: Q04DX002 (ip), vehicle: Klucel (hydroxypropylcellulose) (HPC) 101 % of control | dose: 50.0 mg/kg/injection, schedule: Q04DX002 (ip), vehicle: Klucel (hydroxypropylcellulose) (HPC) 101 % of control | [11] 108 % of control

CCCC(=O)c1ccc(OC)c(OC)c1
inactive: [1] 101 % of control | [5] 95 % of control

COc1nc2c(=O)[nH]cnc2n1C1OC(CO)C(O)C1O (stereo unspecified)
inactive: dose: 100.0 mg/kg/injection, schedule: Q01DX001 (ip), vehicle: saline 96 % of control | dose: 200.0 mg/kg/injection, schedule: Q01DX001 (ip), vehicle: saline 100 % of control | dose: 400.0 mg/kg/injection, schedule: Q01DX001 (ip), vehicle: saline 97 % of control
